One data set deals with IL-6 mRNA in U937 cells. Put plainly: Inhibition of IL-6 mRNA in LPS-stimulated U937 cells (RT-PCR). The format is cell-based, human. The note with it: U937 cells differentiated with PMA. As to the method:
(§1) Huh7 cells were plated at 23,000/well in a 96 well plate in DMEM +10% FBS before allowing to grow overnight. Cells were treated with compounds for 48 h in 0.1%DMSO with or without 5 µM Actinomycin D. U937 cells were differentiated for 3 days in 60 ng/mL PMA, 32,000 cells/well in 96-well format. Cells were then treated with compound in 0.1%DMSO in RPMI media +10%FBS, and after 1 h, lipopolysaccharide (LPS, Sigma) was added to the cells at 1 µg/mL for 3 hours.
(§2) Cells were harvested by mRNA Catcher PLUS Kit followed by real-time PCR using the RNA UltraSense One-Step qRT-PCR System. ApoA-I, IL-6 and TNFα mRNA levels were measured relative to the endogenous control serpin A1 or cyclophilin in the same sample. Data was acquired using the 7500 Real Time PCR System (Applied Biosystems).

The subject of data set [1] is ApoA-I mRNA in Huh7 cells. The experiment in a line: Induction of ApoA-I mRNA in Huh7 cells (RT-PCR). The note with it: for Induction of ApoA-I mRNA: 48 h. In kind it is cell-based, human. How it is done: as §1, §2
Another data set deals with T1, GCN5 (Homo sapiens, UniProt Q92830).
T1 construct: bromodomains contained within six other proteins (CREBBP, p300, BAZ2B, GCN5, PHIP and SMARC2A); His-tag (N)
T1 sequence (Q92830 728-832 limits assumed): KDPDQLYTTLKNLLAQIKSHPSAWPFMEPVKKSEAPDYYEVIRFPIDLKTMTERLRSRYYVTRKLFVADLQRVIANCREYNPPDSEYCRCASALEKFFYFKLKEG
The experiment in a line: Protein thermal denaturation assay. In kind it is binding. As to conditions: 5 µM protein, 100 µM compound. As to the method:
(§3) 5 µM of purified bromodomain protein was incubated with 5X SYPRO® Orange (Molecular Probes) at a final concentration of 20 mM HEPES pH 7.4, 100 mM NaCl in the presence of 100 µM compound or DMSO (0.2%) in a fast 96 well optical plate (Applied Biosytems). Samples were incubated at room temperature for 30 minutes and ramped from 25°C to 95°C in a ViiA7 real-time PCR machine (Applied Biosystems). The resulting fluorescence data was analyzed and melting temperatures calculated using Protein Thermal Shift™ Software v1.0 (Life Technologies).

The target in another data set is T2, SMARCA2A (Homo sapiens, UniProt P51531).
T2 construct: bromodomains contained within six other proteins (CREBBP, p300, BAZ2B, GCN5, PHIP and SMARC2A); His-tag (N)
T2 sequence (P51531 1378-1506 limits assumed): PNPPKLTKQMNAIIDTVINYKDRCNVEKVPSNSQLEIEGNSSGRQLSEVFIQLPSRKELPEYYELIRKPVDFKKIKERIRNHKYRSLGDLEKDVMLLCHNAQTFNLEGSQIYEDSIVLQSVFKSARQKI
Put plainly: Protein thermal denaturation assay. The format is binding. As to conditions: 5 µM protein, 100 µM compound. As to the method:
as §3

The target in a further data set is T3, BAZ2B (Homo sapiens, UniProt Q9UIF8).
T3 construct: bromodomains contained within six other proteins (CREBBP, p300, BAZ2B, GCN5, PHIP and SMARC2A); His-tag (N)
T3 sequence (Q9UIF8 2060-2164 limits assumed): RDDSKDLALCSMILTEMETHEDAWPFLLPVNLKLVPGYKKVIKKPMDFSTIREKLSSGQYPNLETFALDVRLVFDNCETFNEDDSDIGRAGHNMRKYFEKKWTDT
Put plainly: Protein thermal denaturation assay. In kind it is binding. As to conditions: 5 µM protein, 100 µM compound. How it is done: as §3

The target of the next data set is T4, PHIP (Homo sapiens, UniProt Q8WWQ0).
T4 construct: bromodomains contained within six other proteins (CREBBP, p300, BAZ2B, GCN5, PHIP and SMARC2A); His-tag (N)
Put plainly: Protein thermal denaturation assay. The format is binding. As to conditions: 5 µM protein, 100 µM compound. As to the method: as §3

For a further data set, the target named is T5, CREBBP (Homo sapiens, UniProt Q92793).
T5 construct: bromodomains contained within six other proteins (CREBBP, p300, BAZ2B, GCN5, PHIP and SMARC2A); His-tag (N)
T5 sequence (Q92793 1085-1192 limits assumed): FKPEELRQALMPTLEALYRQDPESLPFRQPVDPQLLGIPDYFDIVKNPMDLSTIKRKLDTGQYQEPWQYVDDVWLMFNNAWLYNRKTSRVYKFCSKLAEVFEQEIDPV
Put plainly: Protein thermal denaturation assay. In kind it is binding. The note with it: 5 µM protein, 100 µM compound. As to the method: as §3

The next data set has as its target T6, P300 (Homo sapiens, UniProt Q09472).
T6 construct: bromodomains contained within six other proteins (CREBBP, p300, BAZ2B, GCN5, PHIP and SMARC2A); His-tag (N)
Put plainly: Protein thermal denaturation assay. The format is binding. The note with it: 5 µM protein, 100 µM compound. As to the method:
as §3

For data set [2], the target named is T7, BRD4[BD2] (Homo sapiens, UniProt O60885).
T7 construct: we expressed and purified the bromodomains (BD1, BD2) for the BETs expressed in hepatocytes (BRD2, BRD3, BRD4)
Put plainly: Isothermal titration calorimetry. As to conditions: ITC, 25°C. The format is binding. In general terms: ITC needs no label: the signal is the heat of the interaction.

Data set [3] relates to bromodomains of CREBBP, p300, BAZ2B, GCN5, PHIP and SMARC2A. Put plainly: Protein thermal denaturation assay (text summary). The format is binding. How it is done: as §3
The target of data set [4] is T8, BRD2[BD2] (Homo sapiens, UniProt P25440).
T8 construct: we expressed and purified the bromodomains (BD1, BD2) for the BETs expressed in hepatocytes (BRD2, BRD3, BRD4)
T8 sequence (P25440 344-453 limits assumed): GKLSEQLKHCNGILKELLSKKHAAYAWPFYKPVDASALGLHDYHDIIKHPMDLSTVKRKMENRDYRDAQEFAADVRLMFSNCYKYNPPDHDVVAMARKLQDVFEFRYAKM
Put plainly: Isothermal titration calorimetry. The format is binding. As to conditions: ITC, 25°C.

The target in data set [5] is T9, PHIP on chromatin in Huh7 cells (Homo sapiens, UniProt Q8WWQ0).
T9 construct: endogenous in cells; host or cells: Huh7
The experiment in a line: Extraction of soluble proteins from chromatin (Western blot). In kind it is cell-based. As to the method: Soluble proteins were extracted using a buffer containing 0.5% Triton X-100 (10 mM PIPES pH 6.8, 300 mM sucrose, 50 mMNaCl, 3 mM MgCl2, 1 mM EGTA, 2 mM ribonucleoside vanadyl complex) as previously described. After loading on a 4–12% NuPAGE gradient gel (Life Technologies), the soluble and chromatin-containing pellet fractions were evaluated by Western blot with the following antibodies and dilutions: BRD2 (Bethyl, A302-583A, 1∶5000); BRD3 (Bethyl A302-368A, 1∶2000); BRD4 (Bethyl A301-985A, 1∶1000); PHIP (Abcam ab86244, 1∶2000), HNF4a (Perseus PPH1415, 1∶1000); NR2F2 (Perseus PPH7147, 1∶1000).

For a further data set, the system named is ApoA-I and HDL-C levels. Also noted: method as in PMID 21255957. The note with it: statin-treated patients with coronary artery disease; cited from earlier work.
The test system of data set [6] is cholesterol efflux capacity. The note with it: monkeys; cited from earlier work.
In data set [7] the test system is BRDs2, 3 and 4 on chromatin in Huh7 cells. The experiment in a line: Extraction of soluble BET proteins from chromatin (Western blot). In kind it is cell-based, human. As to the method: Soluble proteins were extracted using a buffer containing 0.5% Triton X-100 (10 mM PIPES pH 6.8, 300 mM sucrose, 50 mMNaCl, 3 mM MgCl2, 1 mM EGTA, 2 mM ribonucleoside vanadyl complex) as previously described.
(Immunoblotting shows a protein as a band on a membrane.)

Data set [8] has as its target T10, BRD4[BD1] (Homo sapiens, UniProt O60885).
T10 construct: we expressed and purified the bromodomains (BD1, BD2) for the BETs expressed in hepatocytes (BRD2, BRD3, BRD4)
Put plainly: Isothermal titration calorimetry. In kind it is binding. As to conditions: ITC, 25°C.

Data set [9] deals with BRDT tandem bromodomains [BD1 BD2] (Homo sapiens, UniProt Q58F21). The experiment in a line: TR-FRET competition assay, tandem bromodomains. The format is binding. As to the method: (§4) For inhibition assays, serially diluted compound was added to these reactions in a 0.2% final concentration of DMSO. Final buffer concentrations were 30 mM HEPES pH 7.4, 30 mM NaCl, 0.3 mM CHAPS, 20 mM PO4 pH 7.0, 320 mM KF, 0.08% BSA). After 2 h incubation at room temperature, the fluorescence by FRET was measured at 665 and 620 nm by a SynergyH4 plate reader (Biotek). IC50 values were determined from a dose response curve.
A general note: Time-resolved FRET reads energy transfer from a long-lived donor to a nearby acceptor.

In data set [10] the target is T11, BRD2[BD1] (Homo sapiens, UniProt P25440).
T11 construct: we expressed and purified the bromodomains (BD1, BD2) for the BETs expressed in hepatocytes (BRD2, BRD3, BRD4)
T11 sequence (P25440 74-180 limits assumed): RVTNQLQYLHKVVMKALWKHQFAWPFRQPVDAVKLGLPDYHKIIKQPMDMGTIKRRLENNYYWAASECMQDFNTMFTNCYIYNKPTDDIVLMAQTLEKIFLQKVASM
The experiment in a line: Isothermal titration calorimetry. In kind it is binding. The note with it: ITC, 25°C.

Another data set deals with ApoA-I mRNA in HepG2. As to conditions: cited from earlier work.
The next data set concerns the target T12, BRD3[BD2] (Homo sapiens, UniProt Q15059).
T12 construct: we expressed and purified the bromodomains (BD1, BD2) for the BETs expressed in hepatocytes (BRD2, BRD3, BRD4)
The experiment in a line: Protein thermal denaturation assay. The note with it: 5 µM protein, 100 µM compound. The format is binding. As to the method: as §3

Another data set deals with T13, BRD3[BD1] (Homo sapiens, UniProt Q15059).
T13 construct: we expressed and purified the bromodomains (BD1, BD2) for the BETs expressed in hepatocytes (BRD2, BRD3, BRD4)
T13 sequence (Q15059 34-140 limits assumed): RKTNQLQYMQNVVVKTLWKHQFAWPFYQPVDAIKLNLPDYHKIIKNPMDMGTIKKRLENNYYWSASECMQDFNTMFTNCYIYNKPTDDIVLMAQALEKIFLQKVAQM
The experiment in a line: Protein thermal denaturation assay. In kind it is binding. The note with it: 5 µM protein, 100 µM compound. How it is done: as §3

The target in data set [11] is T10, BRD4[BD1]. The experiment in a line: Protein thermal denaturation assay. In kind it is binding. As to the method: as §3
Data set [12] has as its target T11, BRD2[BD1]. Put plainly: Protein thermal denaturation assay. The format is binding. As to the method: as §3
Data set [13] deals with T8, BRD2[BD2]. Put plainly: Protein thermal denaturation assay. The format is binding. As to the method: as §3
In data set [14] the target is T7, BRD4[BD2]. Put plainly: Protein thermal denaturation assay. The format is binding. How it is done: as §3
For data set [15], the target named is BD1 bromodomains of BRDs 2 and 3. Put plainly: TR-FRET competition assay. The format is binding, human. As to conditions: BD1 of BRDs 2 and 3, text summary citing Table 3. As to the method: as §4, with “200 nM N-terminally His-tagged bromodomains or BRD4(BD1BD2) and 25–50 nM biotinylated tetra-acetylated histone H4 peptide (Millipore) were incubated in the presence of Europium Cryptate-labeled streptavidin (Cisbio Cat. #610SAKLB) and XL665-labeled monoclonal anti-His antibody (Cisbio Cat.#61HISXLB) in a white 96 well microtiter plate (Greiner). For” for “For”

T6 sequence (Q09472 1049-1156 limits assumed): as the sequence (Q92793 1085-1192 limits assumed) above, with N47S, V73I, F93Y, A98S counted along it
T12 sequence (Q15059 306-415 limits assumed): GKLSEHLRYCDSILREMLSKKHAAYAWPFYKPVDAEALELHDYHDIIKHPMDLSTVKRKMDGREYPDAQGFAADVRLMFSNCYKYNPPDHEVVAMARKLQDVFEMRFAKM

Regarding `Cc1sc2c(c1C)C(c1ccc(Cl)cc1)=N[C@@H](CC(=O)OC(C)(C)C)c1nnc(C)n1-2` [JQ-1, reference compound], the “Suppression of IL-6 mRNA” value in the data set with IL-6 mRNA in U937 cells is “selectively suppresses IL-6 mRNA”. Moreover, the “Induction of ApoA-I mRNA” value in data set [1] is “induces ApoA-I mRNA”. Also, the “Thermal denaturation ΔTm” value is −0.7 °C at GCN5; 0.4 °C on SMARCA2A; −0.83 °C at BAZ2B; −1.4 °C at PHIP; −1.0 °C at CREBBP; −1.4 °C on P300.
Take `COc1cc(OC)c2c(=O)[nH]c(-c3cc(C)c(OCCO)c(C)c3)nc2c1` [RVX-208, 2-(4-(2-hydroxyethoxy)-3,5-dimethylphenyl)-5,7-dimethoxyquinazolin-4(3H)-one]: the ΔH is -6.376 kcal/mol on BRD4[BD2] [2], -4.145 kcal/mol on BRD2[BD2] [4], -17.04 kcal/mol at BRD4[BD1] [8] and -12.67 kcal/mol on BRD2[BD1] [10]. In addition, the ΔS entry on BRD4[BD2] [2] is recorded as “+8.44 cal mol^−1 K^−1”; at BRD2[BD2] [4], “+16.7 cal mol^−1 K^−1”; on BRD4[BD1] [8] it was −34.1 cal mol^−1 K^−1. Moreover, the “Binding to bromodomains of six other proteins” value in [3] is recorded as “did not bind”. Besides, in [5], the “Release of PHIP from chromatin” value is “stays in the insoluble (pellet, P) fraction”. For the same compound, the ApoA-I levels result in the data set with ApoA-I and HDL-C levels is “increased”. Moreover, in the data set on ApoA-I and HDL-C levels, the HDL-C levels result was “increased”. Further, the “Systemic capacity to promote cholesterol efflux” value in data set [6] is on record as “enhanced systemic capacity to promote cholesterol efflux”. Moreover, the “Duration of release of BET proteins from chromatin” value in data set [7] is on record as “more than 48 h”. Further, in data set [7], the “Release of BRDs2, 3 and 4 from chromatin into soluble fraction” value is listed as “partially released from chromatin”. Moreover, the “Time to release of BET proteins from chromatin” value in data set [7] (time of treatment) is not above 2 h. For the same compound, in the data set with IL-6 mRNA in U937 cells, the “Suppression of IL-6 mRNA” value is listed as “selectively suppresses IL-6 mRNA”. The “Induction of ApoA-I in presence of Actinomycin D” value in data set [1] (30 µM RVX-208, with 5 µM Actinomycin D) is given as “inhibited by Actinomycin D”. In addition, the “Induction of ApoA-I mRNA” value (in data set [1]; in the data set on ApoA-I mRNA in HepG2) was “induces ApoA-I mRNA” in each case. In addition, the IC50 (in general, the midpoint of a concentration-inhibition curve) in data set [9] was found to be 1.45 µM. The ΔTm (as a rule, the shift of the melting midpoint relative to a reference) at 100 µM is 6.8 °C at BRD3[BD2]; 0 °C at GCN5; 2.6 °C on BRD3[BD1]; 3.9 °C at BRD4[BD1] [11]; 0.4 °C on SMARCA2A; 0 °C on BAZ2B. Moreover, the ΔTm at 100 µM is 0.19 °C at PHIP; 1.9 °C at BRD2[BD1] [12]; 5.1 °C at BRD2[BD2] [13]; 7.7 °C at BRD4[BD2] [14]; -0.3 °C on CREBBP; -0.16 °C at P300. The Kd (usually the concentration at which binding is half-saturated) in data set [15] was 2 to 3 µM.

Source of the values: article PMC3877016 (PLoS ONE, 2013).
